Key:
Assay in all cases: relative viability (nuclei count vs DMSO), 5 days (fraction); higher = more cells survive
[1] = compound: N#CC[C@H](C1CCCC1)n1cc(-c2ncnc3[nH]ccc23)cn1 [Ruxolitinib] + O=C(c1cc(Cc2n[nH]c(=O)c3ccccc23)ccc1F)N1CCN(C(=O)C2CC2)CC1 [Olaparib] (partner 8 µM)
Procedure, shortened: (§1)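 Lung cancer cell lines were pin-tool dosed in 1536-well plates on the day after seeding, with either a lone drug or a fixed anchor-drug dose plus five library-drug doses (not always all listed) in √10 steps. Nuclei were counted on 4× images after 5 days. Relative viability is the ratio of treated-well to vehicle-well nuclei counts, with each value a median of duplicate plates.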

[2] = compound: N#CC[C@H](C1CCCC1)n1cc(-c2ncnc3[nH]ccc23)cn1 [Ruxolitinib] + N=C(N)NC(=N)NCCc1ccccc1 [Phenformin] (partner 250 µM)
Procedure, shortened: as §1

[3] = compound: CS(=O)(=O)c1ccc(C(=O)Nc2ccc(Cl)c(-c3ccccn3)c2)c(Cl)c1 [Vismodegib] + CS(=O)(=O)CCNCc1ccc(-c2ccc3ncnc(Nc4ccc(OCc5cccc(F)c5)c(Cl)c4)c3c2)o1 [Lapatinib] (partner 2 µM)
Procedure, shortened: as §1

[4] = compound: CS(=O)(=O)c1ccc(-c2cnc(N)c(C(=O)Nc3ccccc3)n2)cc1 [VE-821] + N=C(N)NC(=N)NCCc1ccccc1 [Phenformin] (partner 250 µM)
Procedure, shortened: as §1

Row | Cell Line | relative viability ([1]; first compound 0.08 µM) | relative viability ([1]; first compound 0.253 µM) | relative viability ([1]; first compound 0.8 µM) | relative viability ([1]; first compound 2.53 µM) | relative viability ([1]; first compound 8 µM) | relative viability ([2]; first compound 0.08 µM) | relative viability ([2]; first compound 0.253 µM) | relative viability ([2]; first compound 0.8 µM) | relative viability ([2]; first compound 2.53 µM) | relative viability ([2]; first compound 8 µM) | relative viability ([3]; first compound 0.08 µM) | relative viability ([3]; first compound 0.253 µM) | relative viability ([3]; first compound 0.8 µM) | relative viability ([3]; first compound 2.53 µM) | relative viability ([3]; first compound 8 µM) | relative viability ([4]; first compound 0.08 µM) | relative viability ([4]; first compound 0.253 µM) | relative viability ([4]; first compound 0.8 µM) | relative viability ([4]; first compound 2.53 µM) | relative viability ([4]; first compound 8 µM)
1 | COR-L23 | 0.369 | 0.371 | 0.376 | 0.329 | 0.272 | 0.457 | 0.407 | 0.45 | 0.439 | 0.354 | 0.93 | 0.802 | 0.901 | 0.986 | 1.02 | 0.444 | 0.438 | 0.472 | 0.502 | 0.427
2 | COR-L 105 | – | 0.614 | 0.652 | 0.614 | 0.606 | 0.409 | 0.495 | 0.425 | 0.392 | 0.374 | 0.36 | 0.38 | 0.392 | 0.363 | 0.337 | 0.519 | 0.325 | 0.472 | 0.387 | 0.343
3 | EKVX | – | 0.837 | 0.947 | 0.731 | 0.759 | 0.275 | 0.209 | 0.204 | 0.221 | 0.235 | 0.21 | 0.223 | 0.164 | 0.243 | 0.197 | 0.241 | 0.223 | 0.204 | 0.221 | 0.226
4 | EMC-BAC-2 | 0.465 | 0.482 | 0.478 | 0.478 | 0.406 | 0.534 | 0.471 | 0.555 | 0.44 | 0.353 | 0.891 | 0.857 | 0.839 | 0.933 | 0.9 | 0.569 | 0.475 | 0.577 | 0.528 | 0.463
5 | EPLC-272H | 0.829 | 0.922 | 0.818 | 0.544 | 0.344 | 0.297 | 0.323 | 0.306 | 0.278 | 0.269 | 0.789 | 0.893 | 0.947 | 0.939 | 0.91 | 0.322 | 0.29 | 0.326 | 0.383 | 0.26
6 | H3255 | 0.532 | 0.547 | 0.539 | 0.443 | 0.457 | 0.232 | 0.339 | 0.289 | 0.295 | 0.405 | 0.244 | 0.24 | 0.239 | 0.268 | 0.239 | 0.377 | 0.338 | 0.42 | 0.344 | 0.383
7 | HARA | 1.17 | 0.841 | 1.04 | 0.793 | 0.584 | 0.431 | 0.536 | 0.516 | 0.391 | 0.319 | 0.858 | 0.713 | 0.662 | 0.797 | 0.634 | 0.497 | 0.459 | 0.469 | 0.484 | 0.356
8 | HCC-15 | 0.72 | 0.692 | 0.721 | 0.537 | 0.454 | 0.423 | 0.444 | 0.494 | 0.393 | 0.399 | 0.883 | 0.854 | 0.823 | 0.882 | 0.74 | 0.625 | 0.473 | 0.506 | 0.526 | 0.438
9 | HCC-44 | 0.958 | 0.889 | 0.978 | 0.922 | 0.995 | 0.103 | 0.143 | 0.228 | 0.168 | 0.216 | 0.998 | 1.02 | 0.965 | 1.04 | 0.991 | 0.261 | 0.15 | 0.263 | 0.198 | 0.266
10 | HCC-78 | 0.779 | 0.872 | 0.897 | 0.866 | 0.934 | 0.756 | 0.563 | 0.788 | 0.662 | 0.729 | 0.278 | 0.646 | 0.667 | 0.701 | 0.746 | 0.646 | 0.639 | 0.746 | 0.731 | 0.617
11 | HCC-366 | 0.424 | 0.417 | 0.39 | 0.287 | 0.197 | 0.584 | 0.654 | 0.667 | 0.542 | 0.472 | 1.08 | 1.01 | 1.1 | 1.01 | 1 | 0.709 | 0.57 | 0.555 | 0.502 | 0.12
12 | HCC-827 | – | 0.469 | 0.469 | 0.49 | 0.594 | – | 0.35 | 0.32 | 0.304 | 0.411 | 0.162 | 0.163 | 0.185 | 0.192 | 0.214 | 0.425 | 0.398 | 0.391 | 0.458 | 0.335
13 | HOP-62 | – | 0.389 | 0.381 | 0.315 | 0.416 | 0.678 | 0.629 | 0.699 | 0.668 | 0.63 | 0.981 | 0.891 | 0.934 | 1.04 | 0.926 | 0.671 | 0.611 | 0.77 | 0.696 | 0.667
14 | LC-2-ad | 0.797 | 0.743 | 0.792 | 0.801 | 0.624 | – | 0.515 | 0.561 | 0.553 | 0.456 | 0.917 | 0.963 | 0.993 | 0.943 | 0.954 | 0.666 | 0.593 | 0.661 | 0.686 | 0.591
15 | LCLC-97TM1 | 0.367 | 0.292 | 0.331 | 0.417 | 0.295 | 0.438 | 0.43 | 0.507 | 0.428 | 0.378 | – | – | 0.663 | – | 1.03 | 0.413 | 0.454 | 0.426 | 0.457 | 0.435
